The target of data set [1] is T1, Elastase from human neutrophils (Homo sapiens, UniProt P08246).
T1 sequence (P08246 30-267): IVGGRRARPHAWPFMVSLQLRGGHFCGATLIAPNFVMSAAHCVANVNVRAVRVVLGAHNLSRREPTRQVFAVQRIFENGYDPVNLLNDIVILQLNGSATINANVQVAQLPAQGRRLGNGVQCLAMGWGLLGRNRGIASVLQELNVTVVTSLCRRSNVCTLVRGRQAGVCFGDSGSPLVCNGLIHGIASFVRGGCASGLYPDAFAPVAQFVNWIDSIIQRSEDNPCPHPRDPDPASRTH
In words: Enzymatic assay, elastase. To be noted: Elastase IC50.

The target of data set [2] is Urokinase from human urine (Homo sapiens, UniProt P00749). In words: Enzymatic assay, urokinase.
Data set [3] has as its system Tryptase, from human lung. In words: Enzymatic assay, tryptase. To be noted: at 100 μM.
Data set [4] deals with Coagulation Factor Xa, from uman plasma (Homo sapiens, UniProt P00742). In words: Enzymatic assay, coagulation factor Xa.
Coagulation Factor Xa, from uman plasma, sequence (P00742 235-488 limits assumed): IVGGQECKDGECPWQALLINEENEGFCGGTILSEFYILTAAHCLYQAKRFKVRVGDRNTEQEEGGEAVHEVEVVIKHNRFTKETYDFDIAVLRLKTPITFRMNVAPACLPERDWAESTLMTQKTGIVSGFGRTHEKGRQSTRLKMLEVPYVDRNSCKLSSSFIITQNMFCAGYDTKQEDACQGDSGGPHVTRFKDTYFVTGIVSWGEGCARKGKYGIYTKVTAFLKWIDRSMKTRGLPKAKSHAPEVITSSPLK
Coagulation Factor Xa, from uman plasma, sequence (P00742 41-179 limits assumed): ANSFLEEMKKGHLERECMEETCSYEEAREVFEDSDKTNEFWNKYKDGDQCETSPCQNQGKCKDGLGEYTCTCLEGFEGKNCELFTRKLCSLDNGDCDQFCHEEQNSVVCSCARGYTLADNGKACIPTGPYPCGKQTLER
Data set [5] has as its target T2, CathepsinG, from human neutrophils (Homo sapiens, UniProt P08311).
T2 sequence (P08311 21-244): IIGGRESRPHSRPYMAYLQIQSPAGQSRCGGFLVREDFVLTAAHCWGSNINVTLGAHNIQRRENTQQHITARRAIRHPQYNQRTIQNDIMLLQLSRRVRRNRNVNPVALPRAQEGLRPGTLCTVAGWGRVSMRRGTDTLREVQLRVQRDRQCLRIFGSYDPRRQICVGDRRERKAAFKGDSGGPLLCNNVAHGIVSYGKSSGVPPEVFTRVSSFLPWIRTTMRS
In words: Enzymatic assay, cathepsin G. To be noted: for IC50: Cathepsin G IC50.

The format of data set [6] is in vitro ADME. To be noted: 10 µM. How it is done: 405 μl of plasma/albumin solution were placed in a polypropylene (PP) tube and spiked with 45 μl of compound from a […] solution B, derived from 135 μl of PBS and 15 μl of 1 mM peptide in PBS, pH 7.4. 150 μl aliquots were transferred into individual wells of the 10 kDa filter plate (Millipore MAPPB 1010 Biomax membrane). For “0 minutes controls”: 270 μl of PBS were placed in a PP tube and 30 μl of stock solution B was added and vortexed. 150 μl of control solution were placed into one well of the filter plate and served as “filtered control”.
Further 150 μl of control solution were placed directly into a receiver well (reserved for filtrate) and served as “not-filtered control”. The entire plate including evaporation lid was incubated for 60 min at 37° C. Plasma samples (rat plasma: Harlan Sera lab UK, human plasma: Blutspendezentrum Zürich) were centrifuged at least for 2 h at 4300 rpm (3500 g) and 15° C. in order to yield 100 filtrate. For “serum albumin”-samples (freshly prepared human albumin: Sigma A-4327, rat albumin: Sigma A-6272, all at 40 mg/ml concentration in PBS) approximately 1 hour of centrifugation was sufficient. The filtrates in the receiver PP plate were analysed by LC/MS as follower follows: Column: Jupiter C18 (Phenomenex), mobile phases: (A) 0.1% formic acid in water and (B) acetonitrile, gradient: 5%-100% (B) in 2 minutes, electrospray ionization, MRM detection (triple quadrupole). The peak areas were determined and triplicate values were averaged. The binding was expressed in percent of the (filtered and not-filtered time point 0 min) control 1 and 2 by: 100−(100×T60/T0). The average from these values was then calculated.

Data set [7] addresses Thrombin, from Human Plasma (Homo sapiens, UniProt P00734). In words: Enzymatic assay, thrombin.
Data set [8] concerns the target Trypsin, from human pancreas (Homo sapiens, UniProt P07477). In words: Enzymatic assay, trypsin. To be noted: at 100 μM.
The target of data set [9] is T3, Chymase, from human skin (Homo sapiens, UniProt P23946).
T3 sequence (P23946 22-247): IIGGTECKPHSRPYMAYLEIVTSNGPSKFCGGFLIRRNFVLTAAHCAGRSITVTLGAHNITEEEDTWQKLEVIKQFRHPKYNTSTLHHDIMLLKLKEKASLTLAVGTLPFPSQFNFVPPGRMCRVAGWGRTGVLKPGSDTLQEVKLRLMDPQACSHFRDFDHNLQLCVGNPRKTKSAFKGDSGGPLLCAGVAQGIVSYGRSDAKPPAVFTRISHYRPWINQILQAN
In words: Enzymatic assay, chymase.

For data set [10], the target named is Chymotrypsin, from human pancreas (Homo sapiens, UniProt P17538). In words: Enzymatic assay, chymotrypsin.
Chymotrypsin, from human pancreas, sequence (P17538 19-263): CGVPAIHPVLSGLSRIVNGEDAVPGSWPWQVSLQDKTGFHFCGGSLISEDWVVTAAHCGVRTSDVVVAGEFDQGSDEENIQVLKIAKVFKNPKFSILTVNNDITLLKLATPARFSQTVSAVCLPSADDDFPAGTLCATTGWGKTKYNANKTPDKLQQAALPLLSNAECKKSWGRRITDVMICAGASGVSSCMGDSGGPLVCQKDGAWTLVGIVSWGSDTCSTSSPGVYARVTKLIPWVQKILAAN
Data set [11] deals with HELA cells (Acc57). In words: Cytotoxicity assay (MTT reduction), HELA cells. To be noted: Hela cells. The class given is cell-based. In outline:
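HeLa cells were grown for 24 h, then exposed to peptides at 12.5, 25 and 50 μM in triplicate for 48 h at 37 °C. MTT reduction was read at 595 nm and growth % calculated relative to time-zero wells. LC50 interpolated by linear trend at −50% growth, GI50 at 50%.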
In general terms: Tetrazolium dyes change colour on reduction, which living cells bring about.

In data set [12] the test system is human red blood cells (hRBC). In words: Hemolysis.

Where a SMILES comes first, the peptide text is derived from it.

One may read the IC50 as the midpoint of a concentration-inhibition curve. A lower IC50 goes with greater potency.

As for `C[C@@H]1NC(=O)[C@H]([C@@H](C)O)NC(=O)[C@@H]2CSSC[C@H](NC(=O)[C@H](CCC(N)=O)NC(=O)[C@@H]3CCCN3C(=O)[C@@H]3CCCN3C(=O)[C@H](CC3CCCCC3)NC(=O)[C@H](CO)NC1=O)C(=O)N[C@@H](CCC(N)=O)C(=O)N1CCC[C@@H]1C(=O)N1CCC[C@H]1C(=O)N[C@@H](CCc1ccccc1)C(=O)N2` [Ex. 158] (HELM PEPTIDE1{[O=C([C@H](CCc1ccccc1)N[*:1])[*:2]].C.T.A.S.[Cha].P.P.Q.C.Q.[dP].P}$PEPTIDE1,PEPTIDE1,2:R3-10:R3|PEPTIDE1,PEPTIDE1,1:R1-13:R2$$$V2.0), in [1], half-maximal inhibition (IC50) was put at 0.0071 µM. For the same molecule, the “Urokinase at 100 μM %” value in data set [2] was determined as 10%. For the same molecule, the “Tryptase At 100 μM %” value in [3] came out at 13%. The “FXa at 100 μM %” value in data set [4] worked out at 1%. For the same molecule, the “Cathepsin G at 100 μM %” value in data set [5] (at 100 μM) was found to be 55 at 100%. Also, in data set [6], the “Stability human Plasma t1/2” value is 5 h and the “Stability rat Plasma t1/2” value was determined as 5 h. Further, the “Thrombin at 100 μM %” value in data set [7] is on record as 2%. Besides, in data set [8], the “Trypsin at 100 μM %” value was determined as 8%. In addition, the “Chymase at 100 μM %” value in data set [9] worked out at 0%. In addition, in data set [10], the “Chymotrypsin at 100 μM %” value was found to be 93%.

In the case of `CCCC[C@@H]1NC(=O)[C@H](CC(=O)O)NC(=O)[C@H]2CCCN2C(=O)[C@H](Cc2ccc(O)cc2)NC(=O)[C@@H]2CSSC[C@H](NC1=O)C(=O)N[C@@H]([C@@H](C)O)C(=O)N[C@@H](C)C(=O)N[C@@H](CO)C(=O)N[C@@H]([C@@H](C)CC)C(=O)N1CCC[C@H]1C(=O)N1CCC[C@H]1C(=O)N[C@@H](CCC(N)=O)C(=O)N2` [Ex. 121] (HELM PEPTIDE1{[Nle].C.T.A.S.I.P.P.Q.C.Y.[dP].D}$PEPTIDE1,PEPTIDE1,2:R3-10:R3|PEPTIDE1,PEPTIDE1,1:R1-13:R2$$$V2.0), the IC50 in data set [1] is 0.018 µM; in data set [5] it was 11.2 µM; in [10], 27.5 µM. In addition, the “Urokinase at 100 μM %” value in [2] is reported as 5.7%. Also, in data set [3], the “Tryptase at 100 μM %” value came to 4.6%. Further, the “FXa at 100 μM %” value in [4] came to 5.6%. Moreover, the “Stability human Plasma t1/2” value in data set [6] is 5 h. In addition, the “Stability rat Plasma t1/2” value in [6] stood at 5 h. Moreover, the “Thrombin at 100 μM %” value in [7] is 0%. For the same molecule, in [8], the “Trypsin at 100 μM %” value is 12.8%. Further, the “Chymase at 100 μM %” value in data set [9] came to 1.2%. This molecule registered a Cytotoxicity LC50/GI50 Hela cells in data set [11] of 49 µM.

For `CCCC[C@@H]1NC(=O)[C@H]([C@@H](C)O)NC(=O)[C@@H]2CSSC[C@H](NC(=O)[C@H]([C@@H](C)CC)NC(=O)[C@@H]3CCCN3C(=O)[C@@H]3CCCN3C(=O)[C@H](CC(=O)O)NC(=O)[C@H](CO)NC1=O)C(=O)N[C@@H](Cc1ccc(O)cc1)C(=O)N1CCC[C@@H]1C(=O)N1CCC[C@H]1C(=O)N[C@@H](Cc1ccccc1)C(=O)N2` [Ex. 23] (HELM PEPTIDE1{F.C.T.[Nle].S.D.P.P.I.C.Y.[dP].P}$PEPTIDE1,PEPTIDE1,2:R3-10:R3|PEPTIDE1,PEPTIDE1,1:R1-13:R2$$$V2.0), the “Hemolysis at 100 μM %” value in data set [12] is listed as 0%. Also, in data set [1], the IC50 is above 100 µM. For the same molecule, in data set [2], the “Urokinase at 100 μM %” value is on record as 9%. Moreover, the “Tryptase at 100 μM %” value in data set [3] turned out to be 29%. Moreover, the “FXa at 100 μM %” value in data set [4] is given as 11%. Moreover, in [5], inhibition was half-maximal at 0.038 µM (IC50). Besides, in [6], the “Stability human Plasma t1/2” value turned out to be 5 h and the “Stability rat Plasma t1/2” value was 5 h. The “Thrombin at 100 μM %” value in data set [7] is 0%. In data set [8], the “Trypsin at 100 μM %” value stood at 90%. In addition, the “Chymase at 100 μM %” value in [9] amounted to 60%. Further, the Cytotoxicity LC50/GI50 Hela cells in data set [11] was determined as 51 µM. In data set [10], the “Chymotrypsin at 100 μM %” value amounted to 4%.

These data come from patent publication US8658604B2, “Template-fixed beta-hairpin peptidomimetics with protease inhibitory activity” (Polyphor Ltd, priority 2005, dated 2014).
